Data on one compound can be found in US20250041283A1, “COCRYSTAL OF AN IDH1 INHIBITOR, PROCESS OF PREPARATION THEREOF, PHARMACEUTICAL COMPOSITIONS THEREOF, AND METHODS OF TREATMENT INVOLVING THE SAME” (Servier Pharmaceuticals LLC, priority 2023, published 2025).

Data set [1] can be described thus: Four weeks stability study of lubricated mixtures and tablets (XRPD). To be noted: 4 weeks, open vials, 25° C./60% RH and 40° C./75% RH. It counts as physicochemical. As to the method: Four weeks stability of samples of lubricated mixtures of Example 3B and 5B and tablets of Example 6 prepared from cocrystal of Example 1 was tested according to the following protocol.
All the samples were stored 4 weeks in controlled temperature and humidity chambers in open vials at 25° C./60% RH or 40° C./75% RH. The XPRD analyses were performed extemporaneously in order to be representative of all the samples at temperature and humidity equilibria.
Tablets of Cocrystal+AQ/AV or AV (from Example 6) were gently grinded leading a powder suitable for XRPD analysis. Lubricated mixtures from Examples 3B and 5B were analyzed without grinding. The XRPD patterns were recorded from 3.5° 2q to 35° 2q using an Empyrean diffractometer from Panalytical operating in the transmission mode with CuKα radiation (l=1.5418 Å) at 45 kV and 40 mA and with a 0.013° 2q step size for 30 minutes.

A short description of data set [2]: Flowability of lubricated mixtures (European Pharmacopeia). It counts as physicochemical. As to the method: The flowability of the lubricated mixture previously prepared was measured according to the Guidelines of European Pharmacopeia.
Data set [3] is described as follows: Comparative rat PK study, oral capsules. The class given is in vivo. The settings on record: male Wistar rats, 24 mg/kg. As to the method:
The objective of this study was to compare the pharmacokinetics (PK) of four oral (PO) dosage forms of Compound 1 in male Wistar rats (4 groups, N=3/group). Lubricated mixtures prepared from Examples 5A (prepared from Form 1 and Form T11) and 5B (prepared from cocrystal of Example 1) and amorphous solid dispersion of Compound 1 obtained through spray drying as in commercial batches were manually and individually filled in capsules (Size 9).
The administered dose was 24 mg/kg, considering that each rat's weight was around 250 g.
Methods: Animals were fasted approximately 6 hours before dosing and fed 3 at 4 hours post-dose. All animals had free access to water. Compound 1 dose were given to rats via oral gavage (2 capsules/one single administration). Blood samples were collected via the saphenous vein into test tubes containing potassium ethylenediaminetetraacetic acid (K2EDTA) from all animals at 0.25, 0.5, 1, 2, 4, 8, 24, 48 and 72 hours post-dose. Blood sample were centrifuged at 2000 g for 5 minutes to obtain plasma samples. Compound 1 concentration in plasma samples was quantified using a liquid chromatography with tandem mass spectrometry (LC-MS/MS) method. The lower limit of quantification was 1.00 ng/mL with a sample volume of 20 μL.

Data set [4] is described as follows: Solubility in biorelevant media (SGF, FASSIF). The class given is physicochemical. To be noted: thermodynamic from solid, 37° C., after 1 h.
Data set [5] in a line: Physicochemical stability of cocrystal powder stressed at different temperatures and humidities (XRPD). The settings on record: 6 weeks and 12 months at 25° C./60% RH, 25° C./90% RH, 40° C./75% RH and 50° C. The method, then:
FIG. 5 depicts the overlay of the X-ray diffraction spectra of the glutaric acid cocrystal type A of Compound 1 stressed 6 weeks at 25° C./60% RH, 25° C./90% RH, 40° C./75% RH and 50° C. with the theoretical X-ray diffraction spectrum of the said cocrystal (calculated form the single crystal structure).
FIG. 6 depicts the overlay of the X-ray diffraction spectra of the glutaric acid cocrystal type A of Compound 1 stressed 12 months at 25° C./60% RH, 25° C./90% RH, 40° C./75% RH and 50° C. with the theoretical X-ray diffraction spectrum of the said cocrystal (calculated form the single crystal structure).
The XRPD patterns were recorded from 3.5° 2q to 35° 2q using an Empyrean diffractometer from Panalytical operating in the transmission mode with CuKα radiation (l=1.5418 Å) at 45 kV and 40 mA and with a 0.013° 2q step size for 15 minutes (list of examples).

The nature of data set [6]: Sorption/desorption isotherm 0% RH to 90% RH at 25° C. The class given is physicochemical. As to the method: The sorption isotherm of the cocrystal was recorded between 0% RH and 90% RH at 25° C. (see FIG. 7).
The sorption/desorption isotherm of the cocrystal was recorded using the following method: • Equilibrate the sample at 0% RH until the dm/dt was below 0.0005% for 30 consecutive minutes or until maximum 24 hours. • Increase of the relative humidity up to 90% RH with step every 10% RH. Each step was maintained until the dm/dt was below 0.0005% for 30 consecutive minutes or until maximum 24 hours. • Decrease of the relative humidity up to 0% RH with step every 10% RH. Each step was maintained until the dm/dt was below 0.0005% for 30 consecutive minutes or until maximum 24 hours.

Data set [7] in a line: Tablets by direct compression: hardness and tensile strength. The class given is physicochemical. The settings on record: 50 mg tablets, 0.5% magnesium stearate. As to the method: Tablets were prepared by direct compression using a STYL'ONE EVO compaction simulator from Medelpharm Instruments.
Compound 1, either in Form 1, Form T11 or as a glutaric acid cocrystal type A was lubricated by 0.5% magnesium stearate before compression. 99.5% of Compound 1 and 0.5% of magnesium stearate (e.g., 4.975 g of Compound 1 and 0.025 g of magnesium stearate) were used. Compound 1 was weighed, and magnesium stearate was sifted on a 0.4 mm sieve and added progressively to Compound 1. The mixture was homogenized using a Turbula T2F blender for 5 minutes.
50 mg tablets were prepared using a STYL'ONE EVO compaction simulator applying a compressing force of 2.5 kN or 5.0 kN.

[8] abbreviates: lubricated mixtures of Examples 3A and 3B.
Where [9] appears, read: compressive force applied 2.5 kN.
Where [10] appears, read: compressive force applied 5.0 kN.

In the case of `N#Cc1ccnc(N2C(=O)CC[C@H]2C(=O)N(c2cncc(F)c2)[C@H](C(=O)NC2CC(F)(F)C2)c2ccccc2Cl)c1` [Glutaric acid cocrystal of Compound 1], in data set [1], the “Stability of the cocrystal in lubricated mixtures and tablets (AQ/AV or AV)” value was “perfectly stable”. Also, in data set [2] (setting [8]), the “Carr's Index” value amounted to 24%, the “Carr's Index (flowability) rating” value is listed as “Adequate”, the “Flowability” value is reported as “suitable flowability” and the Hausner ratio is 1.32. In addition, the “Hausner ratio (cohesion + compressibility) rating” value in data set [2] (setting [8]) is reported as “Adequate”. Also, the Flow time in data set [2] (lubricated mixtures of Examples 3A and 3B (AV, without AQ), N.S.F. = no spontaneous flow detected) is 8.3 s. In data set [3], the Inter-individual variability stood at 11% and the “Kinetics of absorption / absorption profile versus commercial formulation” value is listed as “comparable to the one of the commercial formulation”. Moreover, the bioavailability (as a rule, dose-corrected exposure relative to a reference, in per cent) in data set [3] (rat, plasma, read-out: Relative bioavailability compared to commercial formulation) stood at 61%. Besides, in data set [4] (simulated gastric fluid, SGF), the solubility – broadly, the dissolved amount per volume that the medium holds – at 1 h is 8 µg/mL. This compound showed a solubility at 1 h in data set [4] (FASSIF) of 13 µg/mL. For the same compound, the “Physicochemical stability of the powder” value in data set [5] is “physicochemically stable”. Besides, in data set [6], the “Stability in humidity conditions (sorption isotherm)” value is recorded as “stable”. In data set [7] (setting [9]), this compound showed a Tablet hardness of 41.6 N and a Tensile strength of 2.562 MPa. Moreover, in data set [7] (setting [10]), the Tablet hardness was 46.4 N and the Tensile strength is 2.998 MPa.
